Experimental data taken from patent publication US8063209B2, “Phosphonyl ester conjugates as prodrugs” (priority 2004, dated 2011).
Like-named read-outs stand apart in the source and are kept apart here.

Legend:
[1] = Single pass intestinal perfusion with portal vein blood collection; format: in vivo, rat; conditions: for Pe-mes (mesenteric permeability): rat in situ single pass intestinal perfusion, portal vein plasma, pH 7.5 buffer
Method: Male albino Sprague-Dawley rats, 9-10 weeks old and weighing 250-400 g were used in the study. Prior to each experiment, the rats were fasted for 18 h with free access to water. The rats were anesthetized with an i.m. injection of ketamine/xylazinelbutorphanol (87, 6, and 0.2 mg/kg body weight, respectively). The abdomen was opened by a midline incision of 4-5 cm. A suitable intestinal segment of approximately 10-20 cm was cannulated on two ends and connected to a syringe pump that guided the solution through a water bath of 37° C. This isolated segment was then rinsed with buffer at the respective pH at a flow-rate of 0.5 ml/min in order to clean out any residual debris. A 10 mM HEPES (pH 7.5) buffer containing 135 mM NaCl, 5 mM KCl and 0.01% PEG 4000 was used for the perfusion buffer. The intestinal segments were perfused at a flow rate of approximately […] with these buffers containing test drug and ^14C-PEG 4000 as a non-absorbable marker for measuring water flux. […] Sample analysis for ^14C (PEG-4000) was performed by scintillation counting. For these studies, we also took blood from the portal vein (prehepatic) as described below. After a segment of intestine was cannulated, the portal vein was then immediately cannulated using a 24-gauge Angeocath catheter (Becton Dickinson, Sandy, Utah). The cannula was secured in place using cyanoacrylate glue or surgical tape and connected to an approximately 35 cm long Silastic tubing, which allowed blood to flow into vials placed about 25 cm below the mesenteric vein. The single-pass intestinal perfusion was initiated at this time. Blood flowing out of the mesenteric vein from the isolated intestinal segment was collected directly into vials, centrifuged immediately and plasma was separated and stored at −80° C.
Rat plasma samples were acidified and processed with solid phase extraction. Briefly, a cation exchange solid-phase cartridge (MCX, 30 mg/i. cc, Waters) was activated with 1.0 ml of methanol and equilibrated with 1.0 ml of water. A 500 μl aliquot of rat plasma was acidified and loaded onto the cartridge. After washing with 1.0 ml of 0.1 N HCl and 1.0 ml methanol, the compounds were eluted with 1 ml of 5% NH4OH in methanol. The solvent was evaporated under vacuum and the residue was reconstituted in 200 μl of water. Samples were analyzed using a LC-MS/MS system (Micromass Quattro II, HP 1100). Ten μl of sample was separated with a Cs column (2.1×150 mm) using a mobile phase of 5-10% acetonitrile:water containing 0.5% formic acid.
From the plasma concentration of compound, the mesenteric permeability was determined by substitution into Eq. (1), Flux=(A)(Pe-mes)(Ci) Eq. (1) where Flux is equal to the portal blood flow (estimated at 1 ml/min in the rat) X the steady state mesenteric blood concentration of cidofovir-based compound, A is the absorptive area of the intestine (estimated at 12.56 cm^2 in the rat intestine), Pe-mes is the mesenteric permeability (cm/s), and Ci is the starting concentration of the drug in the perfusate ([…]).

hPepT1 = biological target: T1, hPepT1 (Homo sapiens, UniProt P46059); experiment: Competitive binding (3H Gly-Sar uptake inhibition) in hPepT1 over-expressing DC5 cells; format: cell-based; conditions: for affinity for PepT1: DC5 cells over-expressing hPepT1
T1 construct: expressed in transfected cells; host or cells: DC5 cells (hPepT1 over-expressing cell line)
T1 sequence (P46059 1-708): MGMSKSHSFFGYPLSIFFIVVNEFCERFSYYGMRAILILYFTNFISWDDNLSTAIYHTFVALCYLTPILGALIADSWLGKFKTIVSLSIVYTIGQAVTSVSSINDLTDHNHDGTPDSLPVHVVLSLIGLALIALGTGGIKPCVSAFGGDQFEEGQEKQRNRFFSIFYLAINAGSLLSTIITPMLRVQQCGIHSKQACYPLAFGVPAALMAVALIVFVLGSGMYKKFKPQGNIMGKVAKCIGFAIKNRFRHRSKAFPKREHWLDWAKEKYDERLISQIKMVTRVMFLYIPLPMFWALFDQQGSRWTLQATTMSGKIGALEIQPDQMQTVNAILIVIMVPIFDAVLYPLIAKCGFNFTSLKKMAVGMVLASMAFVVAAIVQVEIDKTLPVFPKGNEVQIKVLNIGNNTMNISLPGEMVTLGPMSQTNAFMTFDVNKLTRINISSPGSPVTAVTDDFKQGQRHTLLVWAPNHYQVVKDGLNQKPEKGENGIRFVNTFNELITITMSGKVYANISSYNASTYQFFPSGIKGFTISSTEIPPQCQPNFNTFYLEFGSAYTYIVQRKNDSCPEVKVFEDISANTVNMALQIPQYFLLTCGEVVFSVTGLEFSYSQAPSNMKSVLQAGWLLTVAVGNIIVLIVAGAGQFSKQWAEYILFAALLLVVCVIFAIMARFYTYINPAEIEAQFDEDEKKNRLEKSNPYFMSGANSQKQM
Method: Ki values for the cidofovir compounds were determined in the hPepT1 over-expressing cell line (DC5) using ^3H glycine-sarcosine (Gly-Sar). DC5 cells were plated (12,000 cells/well) in 96-well tissue culture plates (Falcon) and allowed to grow for 4 days. The cells were washed once with 200 μl of uptake buffer and aspirated. The plates were cooled to 4° C. and 25 μl of uptake buffer containing 50 μM Gly-Sar (0.5 μCi/ml) was added. The uptake buffer also contained the test cidofovir-based compounds over a range of concentrations. Uptake was initiated by placing the plate in a shaker water bath (37° C.) and terminated at 10 min by rapid washing with multiple changes of 4° C. PBS (Sigma). The radioactive peptide was extracted from the cell layer with 200 μl of methanol:water (1:1) and counted in 4 ml of CytoScint ESTM scintillation cocktail (ICN). Non-linear regression analysis of the data was used to determine the IC50 using the solver function in Microsoft Excel.

[2] = pH 3-5
[3] = cell and tissue homogenates
[4] = in vivo; cited from earlier work
[5] = DC5 cells, 50 μM 3H Gly-Sar, 10 min, 37° C., read-out: Gly-Sar inhibition, Ki

SMILES	Pe-mes (mesenteric permeability) [1]	Ki (hPepT1; [5])	Ki (hPepT1)	affinity for PepT1 (hPepT1)	also measured
Nc1ccn(C[C@@H](CO)OCP(=O)(O)O)c(=O)n1 [Cidofovir, (S)-1-(3-hydroxy-2-phosphonylmethoxypropyl)cytosine, reference compound]	0.052 cm/s × 10^5	10.8 ± 0.3 mM	–	–	–
Nc1ccn(C[C@H]2COP(=O)(O)CO2)c(=O)n1 [Cyclic cidofovir, reference compound]	0.003 cm/s × 10^5	10.7 ± 0.2 mM	–	–	–
COC(=O)C(COP1(=O)COC(Cn2ccc(N)nc2=O)CO1)NC(=O)C(C)N (stereo not shown) [Compound 6, cHPMPC-Ala-Ser(OMe)]	0.98 cm/s × 10^5	–	3.4 ± 0.2 mM	significant affinity	–
COC(=O)[C@H](COP1(=O)CO[C@@H](Cn2ccc(N)nc2=O)CO1)NC(=O)[C@@H](N)C(C)C (mixture of isomers) [Compound 4, cHPMPC-Val-Ser(OMe)]	1.18 cm/s × 10^5	–	2.7 ± 0.1 mM	significant affinity	transport on co-dosing with bestatin ([1]; co-dosing with the aminopeptidase inhibitor bestatin): enhanced transport; transport on co-perfusion with Gly-Sar ([1]; in situ perfusion model, co-perfusion with Gly-Sar): almost completely suppressed; transport vs. the parent drug ([1]; rat model): enhanced transport; stability in buffer [2]: stable; release of active drug [3]: rapidly released the active drug
CC(C)[C@H](N)C(=O)OCCOCn1cnc2c(=O)[nH]c(N)nc21 [Valacyclovir]	–	–	–	–	bioavailability enhancement compared to parent drug acyclovir [4]: 3- to 5 fold
COC(=O)[C@H](COP1(=O)CO[C@@H](Cn2ccc(N)nc2=O)CO1)NC(=O)[C@@H](N)CC(C)C (mixture of isomers) [Compound 7, cHPMPC-Leu-Ser(OMe)]	0.48 cm/s × 10^5	5.4 ± 0.2 mM	–	significant affinity	–
